Test results taken from patent US6656500B2, “Capsule system” (Allergan, Inc., priority 1999, dated 2003).

Experiments:
[1] = women of child-bearing age who just get off treatment; cited from earlier work
[2] = Solubility of Tazarotene in water; format: physicochemical
Source text: The invention is directed to capsule systems for the delivery of active agents, particularly retinoids. In a preferred example, it is known that the compound Tazarotene, known chemically as ethyl 6-[(4,4-dimethylthiochroman-6-yl)ethynyl]-nicotinate, having the molecular formula C21H21NO2S, is active in the treatment of acne and psoriasis. […] However, the solubility of Tazarotene in water is negligible.

[3] = Amount of Tazarotene solubilized in caprylic/capric triglyceride per capsule; format: physicochemical; settings: caprylic/capric triglyceride vehicle
Source text: Importantly, the retinoid agent, Tazarotene, is fully dissolved in the vehicle in a conventional manner before incorporation into the capsule shell. The total dissolution of Tazarotene in the vehicle facilitates absorption from the gastro-intestinal tract by eliminating the need for drug dissolution prior to absorption.

solubility in water [2]	amount effectively solubilized in a capsule [3]	SMILES	typical precautionary pregnancy wash-out period [1]
		COc1cc(C)c(/C=C/C(C)=C/C=C/C(C)=C/C(=O)O)c(C)c1C [acitretin]	three years
negligible	up to 34 mg	CCOC(=O)c1ccc(C#Cc2ccc3c(c2)C(C)(C)CCS3)nc1 [Tazarotene, ethyl 6-[(4,4-dimethylthiochroman-6-yl)ethynyl]-nicotinate]	
		CC1=C(/C=C/C(C)=C/C=C/C(C)=C\C(=O)O)C(C)(C)CCC1 [isotretinoin]	one month
